Data from patent publication US8329685B1, “Enhancement of the action of anti-infective agents and of central and peripheral nervous system agents and transportation of nucleic acid substances” (priority 2001, dated 2012).

Tested on: M.Tb. drug resistant strain TV25
Assay type: cell-based, Mycobacterium tuberculosis

NNC(=O)c1ccncc1 [INH, Isoniazid]
additional effectiveness of INH in the presence of MZL: 41.5% | effect of INH alone (without MZL): no effect
